# Measured values from patent US10786690B2, “Amide derivatives of polycaffeoylquinic acids, process for producing same and uses thereof” (TEMISIS, priority 2016, dated 2020).
# How the values were obtained:
# [1] = test system: Normal Human Epidermal Keratinocytes (NHEKs); experiment: Microscopic observation of NHEK cell survival 48 h after inflammatory treatment; type: cell-based; conditions: for Result at 48 h: cell survival: NHEK cultures 48 h after inflammatory treatment (10 ng/mL PMA + 2 μM calcium ionophore A23187), microscopic observation; for effect on cell survival / cellular protection against inflammation: NHEK cultures 48 h after inflammatory treatment, summary in words
# Procedure: The cells, treated and not treated by the compounds to be tested, were observed under an optical microscope 48 h after the following inflammatory treatment: 10 ng/mL PMA/H2O+2 μM calcium ionophore A23187/DMSO.
# NHEKs were brought into contact or not with the compounds to be tested. After 2 h, the cells underwent or not an inflammation treatment (10 ng/mL PMA/H2O+2 μM calcium ionophore A23187/DMSO).
# The cells were observed under an optical microscope 48 h after the inflammatory treatment.
# LTB4 = LTB4 production by NHEKs in the inflammatory state (arachidonic acid + calcium ionophore), ELISA; type: cell-based, human; conditions: arachidonic acid 1 μM + calcium ionophore A23187 2 h, compounds 50 μM, NDGA 2 μM, relative to induced control
# Procedure: (§1) The study was carried out on Normal Human Epidermal Keratinocytes (NHEKs) (Lonza, CC-2507, origin: foreskin) in monolayer culture in Epilife medium (Invitrogen, M-EPI-500-A) containing the components of the Human Keratinocyte Growth Supplement (HKGS) mixture (Invitrogen, S-001-K) added separately, except hydrocortisone having anti-inflammatory properties.
# The induction of LTB4 production having a very fast kinetics, the scheme was adapted. In this case, the inflammatory state was induced for 2 h by applying arachidonic acid (a.a./1 μM/ethanol) combined with calcium ionophore A23187 (2 μM/DMSO). Nordihydroguaiaretic acid (NDGA) was used as reference molecule (2 μM/ethanol).
# (§2) The effect of the compounds was studied by applying them to the keratinocyte culture medium 2 h prior to induction of the inflammatory state as well as during induction (2 h for LTB4, 24 h for IL-8, PGE2, IL-6 and TNF-α).
# (§3) Each condition was carried out in triplicate cultures and the supernatants were recovered at the end of the various treatments.
# (§4) Quantification of the various inflammatory mediators was carried out with specific kits, based on a standard curve, according to the instructions provided by the kits' suppliers, R&D Systems and Cayman Chemical.
# (§5) Before induction of the inflammatory state, the NHEKs were treated with the compounds and reference molecules for 2 h. The inflammatory state was then induced according to the conditions described in the methodology section, the culture supernatants were collected, and the various inflammatory mediators were quantified by the ELISA technique.
# The effects of the compounds on LTB4 production are shown in FIG. 8 and are expressed as a percentage of the treatment with arachidonic acid (a.a.) combined with calcium ionophore A23187 set at 100%.
# IL-8 = IL-8 production by NHEKs in the inflammatory state (PMA), ELISA; type: cell-based, human; conditions: PMA 10 ng/ml 24 h, compounds 50 μM, dexamethasone 10 μM, relative to PMA induced control (100%)
# Procedure: as §1
# (§6) For the quantification of IL-8 and PGE2, the inflammatory state of the NHEKs in culture was induced by treatment with PMA (phorbol myristate acetate/10 ng/ml/H2O) for 24 h. Induction of IL-6 was achieved by treatment with PMA (10 ng/ml/H2O) combined with calcium ionophore A23187 (2 μM/DMSO) in medium containing calcium at a concentration of 0.8 mM. […]
# as §4
# as §5, with “technique. […]” for “technique.”
# PGE2 = PGE2 production by NHEKs in the inflammatory state (PMA), ELISA; type: cell-based, human; conditions: PMA 10 ng/ml 24 h, compounds 50 μM, indomethacin 10 μg/ml, relative to PMA induced control (100%)
# Procedure: as §1
# For the quantification of IL-8 and PGE2, the inflammatory state of the NHEKs in culture was induced by treatment with PMA (phorbol myristate acetate/10 ng/ml/H2O) for 24 h. Induction of IL-6 was achieved by treatment with PMA (10 ng/ml/H2O) combined with calcium ionophore A23187 (2 μM/DMSO) in medium containing calcium at a concentration of 0.8 mM. TNF-α secretion was induced by a combination of PMA (10 ng/ml/H2O) and calcium ionophore A23187 (2 μM/DMSO) applied for 24 h (TNF-α) in medium containing 0.06 mM calcium. The reference molecules used are dexamethasone (10 μM/H2O) and indomethacin (10 μg/ml/ethanol).
# as §2, §3, §4, §5
# The effect of the compounds on PGE2 production is presented in FIG. 5 and is expressed as a percentage of the PMA treatment set at 100%.
# IL-6 = IL-6 production by NHEKs in the inflammatory state (PMA + calcium ionophore, 0.8 mM Ca2+), ELISA; type: cell-based, human; conditions: PMA + calcium ionophore A23187, 0.8 mM Ca2+, compounds 50 μM, dexamethasone 10 μM, relative to induced control
# Procedure: as §1
# For the quantification of IL-8 and PGE2, the inflammatory state of the NHEKs in culture was induced by treatment with PMA (phorbol myristate acetate/10 ng/ml/H2O) for 24 h. […]
# as §4, §5
# The effect of the compounds on IL-6 production by NHEKs in the inflammatory state is shown in FIG. 6 and is expressed as a percentage of the treatment with PMA combined with calcium ionophore A23187 (under high-calcium conditions: 0.8 mM Ca2+).
# TNF-α = TNF-α production by NHEKs in the inflammatory state (PMA + calcium ionophore, 0.06 mM Ca2+), ELISA; type: cell-based, human; conditions: PMA + calcium ionophore A23187 24 h, compounds 50 μM, dexamethasone 10 μM, relative to induced control
# Procedure: as §1, §6, §4
# as §5, with “technique. […]” for “technique.”
Structure (SMILES),Result at 48 h: cell survival [1],effect on cell survival / cellular protection against inflammation [1],LTB4 production (LTB4),IL-8 production (IL-8),PGE2 production (PGE2),IL-6 production (IL-6),TNF-α production (TNF-α)
"O=C(/C=C/c1ccc(O)c(O)c1)O[C@@H]1C[C@](O)(C(=O)O)C[C@@H](OC(=O)/C=C/c2ccc(O)c(O)c2)[C@H]1O [PAT965, 3,5-O-Dicaffeoylquinic]",10% cell survival,little or no effect on cell survival,–,–,–,–,–
"CC(Cc1ccc(O)c(O)c1)C(C)Cc1ccc(O)c(O)c1 (stereo not drawn) [NDGA, Nordihydroguaiaretic acid, reference compound]",–,–,very highly significantly inhibits,–,–,–,–
"CCCCCCCCCCCCNC(=O)[C@]1(O)C[C@@H](OC(=O)/C=C/c2ccc(O)c(O)c2)[C@@H](O)[C@H](OC(=O)/C=C/c2ccc(O)c(O)c2)C1 [PAT1648, (2E,2′E)-((1R,2S,3R,5S)-5-(dodecylcarbamoyl)-2,5-dihydroxycyclohexane-1,3-diyl) bis(3-(3,4-dihydroxyphenyl) acrylate)]",Confluent culture: 100%,strong cellular protection against inflammation,"block/decrease, in a very highly significant manner",inhibit/reduce IL-8 production to the baseline level,very highly significantly decrease,largest decreases and are more effective than dexamethasone itself,most marked effects and are more effective than dexamethasone itself
"CCCCNC(=O)[C@]1(O)C[C@@H](OC(=O)/C=C/c2ccc(O)c(O)c2)[C@@H](O)[C@H](OC(=O)/C=C/c2ccc(O)c(O)c2)C1 [PAT1658, (2E,2′E)-((1R,2S,3R,5S)-5-(butylcarbamoyl)-2,5-dihydroxycyclohexane-1,3-diyl) bis(3-(3,4-dihydroxyphenyl)acrylate)]",80% cell survival,strong cellular protection against inflammation,"block/decrease, in a very highly significant manner",–,very highly significantly decrease,–,–
"O=C(/C=C/c1ccc(O)c(O)c1)O[C@@H]1[C@H](O)C[C@@](O)(C(=O)O)C[C@H]1OC(=O)/C=C/c1ccc(O)c(O)c1 [PAT964, 3,4-O-Dicaffeoylquinic]",10% cell survival,little or no effect on cell survival,–,–,–,–,–
C[C@@H]1C[C@H]2[C@@H]3CCC4=CC(=O)C=C[C@]4(C)[C@@]3(F)[C@@H](O)C[C@]2(C)[C@@]1(O)C(=O)CO [dexamethasone],10% cell survival,–,–,–,–,–,–
"COc1ccc2c(c1)c(CC(=O)O)c(C)n2C(=O)c1ccc(Cl)cc1 [indomethacin, reference compound]",–,–,–,–,reduces this PGE2 production in the culture supernatants to an almost undetectable level,–,–
"O=C(/C=C/c1ccc(O)c(O)c1)O[C@H]1[C@H](O)C[C@](O)(C(=O)O)C[C@H]1OC(=O)/C=C/c1ccc(O)c(O)c1 [PAT967, 4,5-O-Dicaffeoylquinic]",10% cell survival,little or no effect on cell survival,–,–,very highly significantly decrease,–,–
